{"source": "patent US20150073159A1", "about": "“Solid State Forms Of Cabazitaxel And Processes For Preparation Thereof” (PLUS CHEMICALS SA, priority 2011, published 2015)", "key": {"[1]": {"test": "Hygroscopicity and stability test (exposure to controlled relative humidity; water content by Karl-Fischer, form by PXRD)", "assay_type": "physicochemical", "conditions": "for % water content: Karl-Fischer coulometric titration; for Conversion to other forms of Cabazitaxel (in words) / Hygroscopicity (in words): normal atmospheric humidity, 60%, 80% and 100% RH", "experimental": "(§1) Powder X-ray Diffraction was performed on an X-Ray powder diffractometer: PanAlytical X'pert Pro; CuKα radiation (λ=1.5418 Å); X'Celerator detector with active length 2.122 degrees 2-theta; laboratory temperature 22-25° C.; zero background sample holders. Prior to analysis, the samples were gently ground using a mortar and pestle to obtain a fine powder. The ground sample was adjusted into a cavity of the sample holder and the surface of the sample was smoothed using a cover glass.\nA silicon powder internal standard was used to calibrate the peak positions and to eliminate an effect of the sample preparation. […] The internal standard powder can be mixed with a sample The PXRD diffractogram is then acquired and the current position of the aforementioned internal standard diffraction peak is determined. The difference between the current position of the diffraction and its nominal value of 28.44 degrees 2-theta is calculated. The current positions of all relevant sample peaks are then corrected using the above difference to obtain the true positions of the sample diffractions. The confidence interval for the peak positions was determined to be ±0.1 degrees 2-theta.\nScan range: 3-40 degrees 2-theta; Scan mode: continuous; Step size: 0.0167 degrees; Time per step: 42 s; Sample spin: 16 rpm; Sample holder: zero background silicon plate.\nAbout 100 mg of a sample was placed to a cell with controlled relative humidity. The samples were exposed to 60%, 80% and 100% relative humidity, at a temperature of about room temperature, for a period of about two days. XRPD analysis and water content by Karl-Fischer coulometric titration were carried out before and after the exposure to the defined relative humidity.\nWater was determined by KF Oven method (832 KF Thermoprep connected to 831 KF Coulometer). Water from the sample (50 mg of cabazitaxel) was released by nitrogen stream at 130° C. Extraction time was 10 minutes."}, "[2]": {"test": "Polymorphic stability on storage (conversion measured by PXRD)", "assay_type": "physicochemical", "experimental": "As used herein, and unless indicated otherwise, the term “polymorphic stability” in relation to the crystalline forms of Cabazitaxel means that there is less than 20%, 10%, 5%, 1%, 0.5% or 0.1% conversion of crystalline Cabazitaxel to any other solid state form of Cabazitaxel under the specified conditions, as measured by PXRD. In some embodiments, the conversion is 0.5%-20%, 0.5%-10% or 0.5%-5% or 0.5%-1% or 0.1%-1%, or 0.1%-0.5%.\nas §1"}, "[3]": {"conditions": "60% RH, about room temperature, about two days"}, "[4]": {"conditions": "80% RH, about room temperature, about two days"}, "[5]": {"conditions": "100% RH, about room temperature, about two days"}}}
{"smiles": "CO[C@H]1C(=O)[C@]2(C)[C@@H](OC)C[C@H]3OC[C@@]3(OC(C)=O)[C@H]2[C@H](OC(=O)c2ccccc2)[C@]2(O)C[C@H](OC(=O)[C@H](O)[C@@H](NC(=O)OC(C)(C)C)c3ccccc3)C(C)=C1C2(C)C", "note": "[Form I, Cabazitaxel]", "values": [{"measurement": "Form (crystalline structure determined by PXRD)", "setting": "[1]; [3]", "result": "Form I"}, {"measurement": "% water content", "setting": "[1]; [3]", "result": 0.13, "unit": "%"}, {"measurement": "Form (crystalline structure determined by PXRD)", "setting": "[1]; [4]", "result": "Form I"}, {"measurement": "% water content", "setting": "[1]; [4]", "result": 0.14, "unit": "%"}, {"measurement": "Form (crystalline structure determined by PXRD)", "setting": "[1]; [5]", "result": "Form I"}, {"measurement": "% water content", "setting": "[1]; [5]", "result": 0.14, "unit": "%"}, {"measurement": "Form (crystalline structure determined by PXRD)", "setting": "[1]; Atmospheric RH", "result": "Form I"}, {"measurement": "% water content", "setting": "[1]; Atmospheric RH", "result": 0.05, "unit": "%"}, {"measurement": "Conversion to other forms of Cabazitaxel (in words)", "setting": "[1]; about room temperature", "result": "does not convert to any other forms of Cabazitaxel"}, {"measurement": "Hygroscopicity (in words)", "setting": "[1]; about room temperature", "result": "low-hygroscopicity form"}]}
{"smiles": "CO[C@H]1C(=O)[C@]2(C)[C@@H](OC)C[C@H]3OC[C@@]3(OC(C)=O)[C@H]2[C@H](OC(=O)c2ccccc2)[C@]2(O)C[C@H](OC(=O)[C@H](O)[C@@H](NC(=O)OC(C)(C)C)c3ccccc3)C(C)=C1C2(C)C", "note": "[Form II, Cabazitaxel]", "values": [{"measurement": "Form (crystalline structure determined by PXRD)", "setting": "[1]; [3]", "result": "Form II"}, {"measurement": "% water content", "setting": "[1]; [3]", "result": 0.07, "unit": "%"}, {"measurement": "Form (crystalline structure determined by PXRD)", "setting": "[1]; [4]", "result": "Form II"}, {"measurement": "% water content", "setting": "[1]; [4]", "result": 0.09, "unit": "%"}, {"measurement": "Form (crystalline structure determined by PXRD)", "setting": "[1]; [5]", "result": "Form II"}, {"measurement": "% water content", "setting": "[1]; [5]", "result": 0.11, "unit": "%"}, {"measurement": "Form (crystalline structure determined by PXRD)", "setting": "[1]; Atmospheric RH", "result": "Form II"}, {"measurement": "% water content", "setting": "[1]; Atmospheric RH", "result": 0.02, "unit": "%"}, {"measurement": "Conversion to other forms of Cabazitaxel (in words)", "setting": "[1]; about room temperature", "result": "does not convert to any other forms of Cabazitaxel"}, {"measurement": "Hygroscopicity (in words)", "setting": "[1]; about room temperature", "result": "low-hygroscopicity form"}]}
{"smiles": "CO[C@H]1C(=O)[C@]2(C)[C@@H](OC)C[C@H]3OC[C@@]3(OC(C)=O)[C@H]2[C@H](OC(=O)c2ccccc2)[C@]2(O)C[C@H](OC(=O)[C@H](O)[C@@H](NC(=O)OC(C)(C)C)c3ccccc3)C(C)=C1C2(C)C", "note": "[Form III, Cabazitaxel]", "values": [{"measurement": "Period of polymorphic stability", "setting": "[2]; about 25° C. and 60% relative humidity", "result": "at least 6 months"}, {"measurement": "Period of polymorphic stability", "setting": "[2]; about 40° C. and 75% RH", "result": "at least 6 months"}, {"measurement": "Form (crystalline structure determined by PXRD)", "setting": "[1]; [3]", "result": "Form III"}, {"measurement": "% water content", "setting": "[1]; [3]", "result": 0.14, "unit": "%"}, {"measurement": "Form (crystalline structure determined by PXRD)", "setting": "[1]; [4]", "result": "Form III"}, {"measurement": "% water content", "setting": "[1]; [4]", "result": 0.23, "unit": "%"}, {"measurement": "Form (crystalline structure determined by PXRD)", "setting": "[1]; [5]", "result": "Form III"}, {"measurement": "% water content", "setting": "[1]; [5]", "result": 0.19, "unit": "%"}, {"measurement": "Form (crystalline structure determined by PXRD)", "setting": "[1]; Atmospheric RH", "result": "Form III"}, {"measurement": "% water content", "setting": "[1]; Atmospheric RH", "result": 0.05, "unit": "%"}, {"measurement": "Conversion to other forms of Cabazitaxel (in words)", "setting": "[1]; about room temperature", "result": "does not convert to any other solid state forms of Cabazitaxel"}, {"measurement": "Hygroscopicity (in words)", "setting": "[1]; about room temperature", "result": "low-hygroscopicity form"}]}
{"smiles": "CO[C@H]1C(=O)[C@]2(C)[C@@H](OC)C[C@H]3OC[C@@]3(OC(C)=O)[C@H]2[C@H](OC(=O)c2ccccc2)[C@]2(O)C[C@H](OC(=O)[C@H](O)[C@@H](NC(=O)OC(C)(C)C)c3ccccc3)C(C)=C1C2(C)C", "note": "[Form IV, Cabazitaxel]", "values": [{"measurement": "Form (crystalline structure determined by PXRD)", "setting": "[1]; [3]", "result": "Form IV"}, {"measurement": "% water content", "setting": "[1]; [3]", "result": 0.07, "unit": "%"}, {"measurement": "Form (crystalline structure determined by PXRD)", "setting": "[1]; [4]", "result": "Form IV"}, {"measurement": "% water content", "setting": "[1]; [4]", "result": 0.09, "unit": "%"}, {"measurement": "Form (crystalline structure determined by PXRD)", "setting": "[1]; [5]", "result": "Form IV"}, {"measurement": "% water content", "setting": "[1]; [5]", "result": 0.09, "unit": "%"}, {"measurement": "Form (crystalline structure determined by PXRD)", "setting": "[1]; Atmospheric RH", "result": "Form IV"}, {"measurement": "% water content", "setting": "[1]; Atmospheric RH", "result": 0.01, "unit": "%"}, {"measurement": "Conversion to other forms of Cabazitaxel (in words)", "setting": "[1]; about room temperature", "result": "does not convert to any other forms of Cabazitaxel"}, {"measurement": "Hygroscopicity (in words)", "setting": "[1]; about room temperature", "result": "low-hygroscopicity form"}]}
{"smiles": "CO[C@H]1C(=O)[C@]2(C)[C@@H](OC)C[C@H]3OC[C@@]3(OC(C)=O)[C@H]2[C@H](OC(=O)c2ccccc2)[C@]2(O)C[C@H](OC(=O)[C@H](O)[C@@H](NC(=O)OC(C)(C)C)c3ccccc3)C(C)=C1C2(C)C", "note": "[Form V, Cabazitaxel]", "values": [{"measurement": "Form (crystalline structure determined by PXRD)", "setting": "[1]; [3]", "result": "Form V"}, {"measurement": "% water content", "setting": "[1]; [3]", "result": 0.21, "unit": "%"}, {"measurement": "Form (crystalline structure determined by PXRD)", "setting": "[1]; [4]", "result": "Form V"}, {"measurement": "% water content", "setting": "[1]; [4]", "result": 0.30, "unit": "%"}, {"measurement": "Form (crystalline structure determined by PXRD)", "setting": "[1]; [5]", "result": "Form V"}, {"measurement": "% water content", "setting": "[1]; [5]", "result": 0.68, "unit": "%"}, {"measurement": "Form (crystalline structure determined by PXRD)", "setting": "[1]; Atmospheric RH", "result": "Form V"}, {"measurement": "% water content", "setting": "[1]; Atmospheric RH", "result": 0.08, "unit": "%"}, {"measurement": "Conversion to other forms of Cabazitaxel (in words)", "setting": "[1]; about room temperature", "result": "does not convert to any other forms of Cabazitaxel"}, {"measurement": "Hygroscopicity (in words)", "setting": "[1]; about room temperature", "result": "low—hygroscopicity form"}]}
